From US20260256925A1, “INDAZOLE DERIVATIVES AS ESTROGEN RECEPTOR DEGRADERS” (REGENTS OF THE UNIVERSITY OF MICHIGAN, priority 2022, published 2026)

What was measured:
ER = target: T1, ER (Homo sapiens, UniProt P03372); assay: In-cell western blot analysis, relative ER percentage (compounds B1-B126); type: cell-based; conditions: ER degradation, 16 hours, read-out: ICW DC50
T1 construct: endogenous in cells; probably T47D or MCF-7
T1 sequence (P03372 1-595): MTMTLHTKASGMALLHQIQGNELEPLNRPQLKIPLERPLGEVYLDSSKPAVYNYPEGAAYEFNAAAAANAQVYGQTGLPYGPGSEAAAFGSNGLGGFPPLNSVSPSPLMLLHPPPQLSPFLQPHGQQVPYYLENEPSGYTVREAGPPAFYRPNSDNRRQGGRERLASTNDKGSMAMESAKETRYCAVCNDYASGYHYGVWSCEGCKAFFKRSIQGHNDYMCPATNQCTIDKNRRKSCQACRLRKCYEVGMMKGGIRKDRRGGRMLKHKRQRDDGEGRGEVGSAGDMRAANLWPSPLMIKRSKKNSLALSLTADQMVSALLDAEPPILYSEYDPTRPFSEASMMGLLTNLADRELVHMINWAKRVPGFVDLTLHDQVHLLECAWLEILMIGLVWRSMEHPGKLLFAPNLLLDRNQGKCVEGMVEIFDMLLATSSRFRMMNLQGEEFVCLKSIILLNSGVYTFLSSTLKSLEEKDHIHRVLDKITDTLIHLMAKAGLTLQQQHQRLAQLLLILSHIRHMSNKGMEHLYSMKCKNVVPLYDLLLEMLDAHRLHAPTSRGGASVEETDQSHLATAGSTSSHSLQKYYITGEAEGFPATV
Method in brief: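 Cells seeded at 40,000 or 10,000 per well overnight were treated with compound (final 0.5% DMSO) for 16 hours, then fixed with formaldehyde. ER was detected with primary antibodies and anti-rabbit-680/anti-mouse-800 secondaries on a CLX reader. Signal is expressed relative to untreated and DMSO wells set as 100%.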

[1] = Cell growth assay, WST-8 (compounds B1-B126); type: cell-based; conditions: 96 h; T47D cell line, WST-8, 4 days; read-out: Cell growth inhibition in T47D cell line IC50
Method in brief: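 Cells seeded at 1500/well overnight, treated one day later with compound doses for 4 days, then 10% WST-8 added for 2.5 h at 37° C in CO2. Absorbance at 450 nm, expressed relative to vehicle control over three independent repeats.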

Structure (SMILES)	DC50 (ER)	IC50 [1]
C[C@@H]1Cc2c(ccc3[nH]ncc23)[C@@H](c2ccc(N3CCC4(CC3)CC(CN3CCN5c6c(ccc7c6CN(C6CCC(=O)NC6=O)C7=O)OC[C@@H]5C3)C4)cn2)N1CC(F)(F)F (stereo partly drawn) [Compound B109, 3-((S)-9-((7-(6-((6S,8R)-8-methyl-7-(2,2,2-trifluoroethyl)-6,7,8,9-tetrahydro-3H-pyrazolo[4,3-f]isoquinolin-6-yl)pyridin-3-yl)-7-azaspiro[3.5]nonan-2-yl)mcthyl)-3-oxo-1,3,7,7a,8,9,10,11-octahydro-2H-pyrazino[1′,2′:4,5][1,4]oxazino[3,2-e]isoindol-2-yl)piperidine-2,6-dione]	> 100 nM	1 to 10 nM
C[C@@H]1Cc2c(ccc3[nH]ncc23)[C@@H](c2ccc(N3CCC4(CC3)CC(CN3CCN5c6cc7c(cc6OC[C@@H]5C3)C(=O)N(C3CCC(=O)NC3=O)C7)CO4)cn2)N1CC(F)(F)F (stereo partly drawn) [Compound B94, 3-((4aS)-3-((8-(6-((6S,8R)-8-methyl-7-(2,2,2-trifluoroethyl)-6,7,8,9-tetrahydro-3H-pyrazolo[4,3-f]isoquinolin-6-yl)pyridin-3-yl)-1-oxa-8-azaspiro[4.5]decan-3-yl)methyl)-8-oxo-1,2,3,4,4a,5,8,10-octahydro-9H-pyrazino[1′,2′:4,5][1,4]oxazino[2,3-f]isoindol-9-yl)piperidine-2,6-dione]	< 10 nM	< 1 nM
COc1cc(N2CCC3(CC2)OCC(CN2CCN4c5cc6c(cc5OC[C@H]4C2)C(=O)N(C2CCC(=O)NC2=O)C6)CO3)ccc1[C@@H]1c2ccc3[nH]ncc3c2C[C@@H](C)N1CC(F)F (stereo partly drawn) [Compound B115, 3-((R)-3-((9-(4-((6S,8R)-7-(2,2-difluoroethyl)-8-methyl-6,7,8,9-tetrahydro-3H-pyrazolo[4,3-f]isoquinolin-6-yl)-3-mcthoxyphenyl)-1,5-dioxa-9-azaspiro[5.5]undecan-3-yl)methyl)-8-oxo-1,2,3,4,4a,5,8,10-octahydro-9H-pyrazino[1′,2′:4,5][1,4]oxazino[2,3-f]isoindol-9-yl)piperidine-2,6-dione]	< 10 nM	< 1 nM
C[C@@H]1Cc2c(ccc3[nH]ncc23)[C@@H](c2c(F)cc(NC3CC4(C3)CN(CC(=O)N3CCN5c6cc7c(cc6OC[C@@H]5C3)C(=O)N(C3CCC(=O)NC3=O)C7)C4)cc2F)N1CC(F)F (stereo partly drawn) [Compound B42, 3-((S)-3-(2-(6-((4-((6S,8R)-7-(2,2-difluoroethyl)-8-methyl-6,7,8,9-tetrahydro-3H-pyrazolo[4,3-f]isoquinolin-6-yl)-3,5-difluorophenyl)amino)-2-azaspiro[3.3]heptan-2-yl)acetyl)-8-oxo-1,2,3,4,4a,5,8,10-octahydro-9H-pyrazino[1′,2′:4,5][1,4]oxazino[2,3-f]isoindol-9-yl)piperidine-2,6-dione]	< 10 nM	< 1 nM
C[C@@H]1Cc2c(ccc3[nH]ncc23)[C@@H](c2ccc(N3CC4(CCC(CN5CCN6c7ccc8c(c7OC[C@H]6C5)CN(C5CCC(=O)NC5=O)C8=O)CC4)C3)cn2)N1CC(F)(F)F (stereo partly drawn) [Compound B108, 3-((R)-7-((2-(6-((6S,8R)-8-methyl-7-(2,2,2-trifluoroethyl)-6,7,8,9-tetrahydro-3H-pyrazolo[4,3-f]isoquinolin-6-yl)pyridin-3-yl)-2-azaspiro[3.5]nonan-7-yl)methyl)-1-oxo-1,3,5,5a,6,7,8,9-octahydro-2H-pyrazino[1′,2′:4,5][1,4]oxazino[2,3-e]isoindol-2-yl)piperidine-2,6-dione]	< 10 nM	< 1 nM
C[C@@H]1Cc2c(ccc3[nH]ncc23)[C@@H](c2c(F)cc(NC3CN(CC(=O)N4CCN5c6ccc7c(c6OC[C@H]5C4)CN(C4CCC(=O)NC4=O)C7=O)C3)cc2F)N1CC(F)F (stereo partly drawn) [Compound B101, 3-((R)-7-(2-(3-((4-((6S,8R)-7-(2,2-difluoroethyl)-8-methyl-6,7,8,9-tetrahydro-3H-pyrazolo[4,3-f]isoquinolin-6-yl)-3,5-difluorophenyl)amino)azctidin-1-yl)acetyl)-1-oxo-1,3,5,5a,6,7,8,9-octahydro-2H-pyrazino[1′,2′:4,5][1,4]oxazino[2,3-e]isoindol-2-yl)piperidine-2,6-dione]	< 10 nM	1 to 10 nM
C[C@@H]1Cc2c(ccc3[nH]ncc23)[C@@H](c2c(F)cc(N3CCC4(CC3)CN(C(=O)CN3CCN5c6cc7c(cc6OC[C@@H]5C3)C(=O)N(C3CCC(=O)NC3=O)C7)C4)cc2F)N1CC(F)F (stereo partly drawn) [Compound B20, 3-((S)-3-(2-(7-(4-((6S,8R)-7-(2,2-difluoroethyl)-8-methyl-6,7,8,9-tetrahydro-3H-pyrazolo[4,3-f]isoquinolin-6-yl)-3,5-difluorophenyl)-2,7-diazaspiro[3.5]nonan-2-yl)-2-oxoethyl)-8-oxo-1,2,3,4,4a,5,8,10-octahydro-9H-pyrazino[1′,2′: 4,5][1,4]oxazino[2,3-f]isoindol-9-yl)piperidine-2,6-dione]	< 10 nM	< 1 nM
C[C@@H]1Cc2c(ccc3[nH]ncc23)[C@@H](c2ccc(N3CCC4(CC3)CC(CN3CCN5c6cc7c(cc6N(C)C[C@@H]5C3)C(=O)N(C3CCC(=O)NC3=O)C7)C4)cn2)N1CC(F)(F)F (stereo partly drawn) [Compound B61, 3-((S)-6-methyl-3-((7-(6-((6S,8R)-8-methyl-7-(2,2,2-trifluoroethyl)-6,7,8,9-tetrahydro-3H-pyrazolo[4,3-f]isoquinolin-6-yl)pyridin-3-yl)-7-azaspiro[3.5]nonan-2-yl)methyl)-8-oxo-2,3,4,4a,5,6,8,10-octahydropyrazino[1,2-a]pyrrolo[3,4-g]quinoxalin-9(1H)-yl)piperidine-2,6-dione]	< 10 nM	< 1 nM
COc1c2c(cc3c1CN(C1CCC(=O)NC1=O)C3=O)CN(CC(=O)N1CC3(CCN(c4cc(F)c([C@@H]5c6ccc7[nH]ncc7c6C[C@@H](C)N5CC(F)F)c(F)c4)CC3)C1)C2 (stereo partly drawn) [Compound B73, 3-(6-(2-(7-(4-((6S,8R)-7-(2,2-difluoroethyl)-8-methyl-6,7,8,9-tetrahydro-3H-pyrazolo[4,3-f]isoquinolin-6-yl)-3,5-difluorophenyl)-2,7-diazaspiro[3.5]nonan-2-yl)-2-oxoethyl)-4-methoxy-1-oxo-3,5,6,7-tetrahydropyrrolo[3,4-f]isoindol-2(1H)-yl)piperidine-2,6-dione]	10 to 100 nM	< 1 nM
C[C@@H]1Cc2c(ccc3[nH]ncc23)[C@@H](c2c(F)cc(N3CCC(CN4CCN5c6c(ccc7c6CN(C6CCC(=O)NC6=O)C7=O)OC[C@@H]5C4)CC3)cc2F)N1CC(F)F (stereo partly drawn) [Compound B99, 3-((S)-9-((1-(4-((6S,8R)-7-(2,2-difluoroethyl)-8-methyl-6,7,8,9-tetrahydro-3H-pyrazolo[4,3-f]isoquinolin-6-yl)-3,5-difluorophenyl)piperidin-4-yl)methyl)-3-oxo-1,3,7,7a,8,9,10,11-octahydro-2H-pyrazino[1′,2′:4,5][1,4]oxazino[3,2-e]isoindol-2-yl)piperidine-2,6-dione]	10 to 100 nM	> 10 nM
COc1cc(N2CCC3(CC2)CC(CN2CCN4c5ccc6c(c5OC[C@H]4C2)CN([C@H]2CCC(=O)NC2=O)C6=O)CO3)ccc1[C@@H]1c2ccc3[nH]ncc3c2C[C@@H](C)N1CC(F)F (stereo partly drawn) [Compound B81, (3S)-3-((5aR)-7-((8-(4-((6S,8R)-7-(2,2-difluoroethyl)-8-methyl-6,7,8,9-tetrahydro-3H-pyrazolo[4,3-f]isoquinolin-6-yl)-3-methoxyphenyl)-1-oxa-8-azaspiro[4.5]decan-3-yl)methyl)-1-oxo-1,3,5,5a,6,7,8,9-octahydro-2H-pyrazino[1′,2′:4,5][1,4]oxazino[2,3-e]isoindol-2-yl)piperidine-2,6-dione]	< 10 nM	< 1 nM
C[C@@H]1Cc2c(ccc3[nH]ncc23)[C@@H](c2ccc(N3CCC4(CCN(CC(=O)N5Cc6cc7c(cc6C5)C(=O)N(C5CCC(=O)NC5=O)C7)CC4)CC3)cn2)N1CC(F)(F)F (stereo partly drawn) [Compound B76, 3-(6-(2-(9-(6-((6S,8R)-8-methyl-7-(2,2,2-trifluoroethyl)-6,7,8,9-tetrahydro-3H-pyrazolo[4,3-f]isoquinolin-6-yl)pyridin-3-yl)-3,9-diazaspiro[5.5]undecan-3-yl)acetyl)-1-oxo-3,5,6,7-tetrahydropyrrolo[3,4-f]isoindol-2(1H)-yl)piperidine-2,6-dione]	< 10 nM	1 to 10 nM
C[C@@H]1Cc2c(ccc3[nH]ncc23)[C@@H](c2c(F)cc(N3CCC4(CC3)CN(CC(=O)N3CCN5c6cc7c(cc6OC[C@@H]5C3)C(=O)N(C3CCC(=O)NC3=O)C7)C4)cc2F)N1CC(F)F (stereo partly drawn) [Compound B21, 3-((S)-3-(2-(7-(4-((6S,8R)-7-(2,2-difluoroethyl)-8-methyl-6,7,8,9-tetrahydro-3H-pyrazolo[4,3-f]isoquinolin-6-yl)-3,5-difluorophenyl)-2,7-diazaspiro[3.5]nonan-2-yl)acetyl)-8-oxo-1,2,3,4,4a,5,8,10-octahydro-9H-pyrazino[1′,2′: 4,5][1,4]oxazino[2,3-f]isoindol-9-yl)piperidine-2,6-dione]	< 10 nM	< 1 nM
